# What was measured:
# [1] = system: S. minnesota mR613 (OM mutant, deep rough); assay: MIL-based whole-cell extraction (capture, wash, back-extraction, plating); design: species or system Salmonella enterica; key to Relative Affinity for MIL: +++++: higher losses during wash step are due to lower cellular affinity for the MIL; ++++: higher losses during wash step are due to lower cellular affinity for the MIL; +++: higher losses during wash step are due to lower cellular affinity for the MIL; ++: higher losses during wash step are due to lower cellular affinity for the MIL; +: higher losses during wash step are due to lower cellular affinity for the MIL; settings: for Percent-Loss: cells lost to wash solution
# Description: (§1) A universal schematic for MIL-based cell extraction is depicted in FIG. 7B. A 1 mL volume of diluted cell suspension was added to a flat-bottomed 4-mL screw cap glass vial. Fifteen microliters of either the Ni(II) or Dy(III) MIL was added and dispersed into microdroplets by vortex agitation for 30 s. The aqueous phase was decanted following dispersive extraction, and the MIL was subjected to a brief wash step using 1 mL of nuclease-free water (Integrated DNA Technologies, Coralville, IA, USA) to ensure adequate removal of loosely or incidentally bound cells. After washing, release of viable cells from the MIL extraction phase was carried out using a “back-extraction” step accomplished through addition of 1 mL of an ionically-rich nutritive medium comprised of 20 g L^−1 tryptone and 10 g L^−1 NaCl, followed by a 120 s vortex step. After back-extraction, aliquots of the cell-enriched back-extraction medium were enumerated using the track dilution method using 100×100 mm square, gridded TSA, BSA, CA or VRBGA plates.
# (§2) Following back-extraction, aliquots of the cell-enriched back-extraction medium were serially diluted in 0.1% peptone water and a 10 μL aliquot of each dilution was applied to a separate lane on square plates containing an appropriate agar medium. The plates were then tilted at an approximately 80° angle for 15 min to allow the droplets to travel toward the opposite end of the plate. The plates were incubated for 24 h at 37° C. (TSA, VRBGA), for 48 h at 37° C. (BSA) or for 24 h at 37° C. (CA). Colonies were counted and colony forming units (CFU) were determined. The enrichment factor (EF) for MIL-based extraction was calculated using Equation 1, where CMIL represents the concentration of bacteria in suspension following extraction using the MIL and CS is the initial concentration of bacteria in the sample.
# (§3) To further evaluate the importance of the OM to serve as a surface to which the MIL can bind and as a protective layer from potentially deleterious activities of the Ni(II) MIL, capture and recovery of two physiological variants of S. minnesota was performed. The strains compared were S. minnesota SLH 157 (wild type, functional OM) and S. minnesota mR613 (OM mutant). […] Compared to the wild type, cells with a truncated OM are dramatically more susceptible to damage from antimicrobial agents or chemically harsh environments. To study the effect of the Ni(II) MIL exposure on the recovery of wild type and mutant strains of S. minnesota, a 1 mL aliquot of TSB was inoculated with 1×10^5 CFU mL^−1 of bacteria and spiked with 15 μL of the Ni(II) MIL. MIL-based extraction was performed and 10 μL aliquots of the back-extraction solution were enumerated using TSA and BSA plates. Average CFU counts were compared to a standard that was not exposed to the Ni(II) MIL. Extraction and recovery of S. typhimurium was also assessed. Enrichment factors were calculated.
# (§4) Although all of the strains assessed were capable of being enriched by the MIL, some species were physically enriched to greater extents than others with extraction. In order to further examine the cause for this finding, the number of captured cells lost to the wash solution was investigated. The wash step is performed after the MIL enrichment step in order to remove any incidentally-adsorbed bacteria prior to back-extraction. It is hypothesized that the cells with lower enrichment factors have lower affinities for the MIL and are therefore lost in greater number to the wash solution than those having higher enrichment factors. […] The percent-loss during the wash step ranged from 47-79%. […] EF data from Table 4 for three overlapping Salmonella strains are superimposed to highlight trends in percent-loss, relative affinity and EF.
# [2] = system: S. minnesota SLH 157 (wild type, functional OM); assay: as above; design: species or system Salmonella enterica; key to Relative Affinity for MIL: +++++: higher losses during wash step are due to lower cellular affinity for the MIL; ++++: higher losses during wash step are due to lower cellular affinity for the MIL; +++: higher losses during wash step are due to lower cellular affinity for the MIL; ++: higher losses during wash step are due to lower cellular affinity for the MIL; +: higher losses during wash step are due to lower cellular affinity for the MIL
# Description: as §1, §2, §3, §4
# [3] = 1×10^5 CFU mL^−1 in TSB, 15 μL MIL
# [4] = ranked from percent-loss in wash step
compound,measurement,setting,value
"CCCCCCCCCCCCCC[P+](CCCCCC)(CCCCCC)CCCCCC.O=C([CH-]C(=O)C(F)(F)F)C(F)(F)F.O=C([CH-]C(=O)C(F)(F)F)C(F)(F)F.O=C([CH-]C(=O)C(F)(F)F)C(F)(F)F.[Ni+2] [Ni(II) MIL, [P66614^+][Ni(hfacac)3^−]]",Enrichment Factor (TSA),[1]; [3],4
same,Percent-Loss,[1],69 ± 5%
same,Percent-Loss,[1]; listed as MIL,79%
same,antimicrobial effect of capture process on deep rough mutant,[1]; post-capture growth behavior on TSA,not overtly antimicrobial
same,Relative Affinity for MIL,[1]; [4],++
same,Enrichment Factor (BSA),[2]; [3],11
same,Enrichment Factor (TSA),[2]; [3],17
same,Percent-Loss,[2]; cells lost to wash solution,59 ± 3%
same,Relative Affinity for MIL,[2]; [4],+++

# — patent US12416052B2, “Capturing, concentrating, and detecting microbes in a sample using magnetic ionic liquids and recombinase polymerase amplification” (priority 2019, dated 2025)
